# Measurements: article PMC4899947 (Bioorganic & medicinal chemistry letters, 2016)
# How the values were obtained:
# [1] = Plasma and brain samples from the oral HIC study; format: in vivo, rat; conditions: rats
# [2] = test system: haloperidol-induced catalepsy; experiment: Reversal of haloperidol-induced catalepsy; format: in vivo, rat; conditions: rats; for reversal of haloperidol-induced catalepsy (in words): p.o.
# other mGlu receptors = experiment: Selectivity versus the other mGlu receptors
# human mGlu4 = human mGlu4 (Homo sapiens, UniProt Q14833); experiment: Calcium mobilization mGlu4 PAM assay; format: cell-based
# Sequence of human mGlu4 (Q14833 33-912): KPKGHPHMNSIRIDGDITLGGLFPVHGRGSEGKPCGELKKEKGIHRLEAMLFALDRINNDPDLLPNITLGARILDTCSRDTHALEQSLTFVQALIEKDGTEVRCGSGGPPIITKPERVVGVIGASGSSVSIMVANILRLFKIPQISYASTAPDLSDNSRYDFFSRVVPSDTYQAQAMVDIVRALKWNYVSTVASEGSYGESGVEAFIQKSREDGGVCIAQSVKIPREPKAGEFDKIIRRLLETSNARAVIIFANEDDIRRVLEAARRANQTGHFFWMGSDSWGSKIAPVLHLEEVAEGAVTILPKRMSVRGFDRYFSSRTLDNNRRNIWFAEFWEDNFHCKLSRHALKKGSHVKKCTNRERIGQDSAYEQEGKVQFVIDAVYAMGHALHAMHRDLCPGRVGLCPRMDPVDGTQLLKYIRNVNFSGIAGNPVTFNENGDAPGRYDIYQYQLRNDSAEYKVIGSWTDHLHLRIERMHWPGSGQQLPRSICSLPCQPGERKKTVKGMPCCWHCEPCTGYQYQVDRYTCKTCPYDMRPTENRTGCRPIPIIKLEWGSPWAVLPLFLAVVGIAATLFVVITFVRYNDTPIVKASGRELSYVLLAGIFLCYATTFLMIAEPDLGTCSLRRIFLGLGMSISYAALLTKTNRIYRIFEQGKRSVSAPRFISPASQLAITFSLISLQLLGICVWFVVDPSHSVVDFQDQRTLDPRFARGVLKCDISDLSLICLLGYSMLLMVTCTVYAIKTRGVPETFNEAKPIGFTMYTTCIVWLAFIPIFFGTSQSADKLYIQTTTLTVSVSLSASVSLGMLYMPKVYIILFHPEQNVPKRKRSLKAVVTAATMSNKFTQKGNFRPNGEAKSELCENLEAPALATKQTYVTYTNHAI
smiles,measurement,setting,value
CCc1cnc(Oc2ccc(NC(=O)c3ncccc3N)cc2Cl)nc1 [Compound 17t],"total brain level, fold above the rat mGlu4 PAM EC50",[1],greater than 3.5 fold
same,reversal of haloperidol-induced catalepsy at 3 mg/kg p.o.,"[2]; 3 mg/kg p.o., comparable to 6 at 10 mg/kg p.o.",robust reversal
same,reversal of haloperidol-induced catalepsy (in words),[2]; haloperidol 1.5 mg/kg,more efficacious than 6
same,selectivity versus the other mGlu receptors,other mGlu receptors,excellent selectivity
Nc1cccnc1C(=O)Nc1ccc(N2Cc3ccc(Cl)cc3C2=O)c(Cl)c1 [Compound 17g],mGlu4 PAM activity (in words),human mGlu4,devoid of PAM activity
Nc1cccnc1C(=O)Nc1ccc(N2Cc3ccccc3C2=O)c(Cl)c1 [Compound 17e],mGlu4 PAM activity (in words),human mGlu4,good PAM activity
CCc1cnc(Oc2ccc(NC(=O)c3nccnc3N)cc2Cl)nc1 [Compound 20],fold loss of potency relative to 17t,human mGlu4; mGlu4 PAM EC50 relative to 17t,~ 5 fold
Nc1cccnc1C(=O)Nc1cccc(Cl)c1 [Compound 7],fold less potent than 6,human mGlu4; mGlu4 PAM EC50 relative to 6,~ 7 fold
Cc1cccc2c1C(=O)N(c1ccc(NC(=O)c3ncccc3N)cc1Cl)C2=O [Compound 17d],mGlu4 PAM activity (in words),human mGlu4,good PAM activity
CCc1cnc(Oc2ccc(NC(=O)c3ccncc3N)cc2Cl)nc1 [Compound 19],mGlu4 PAM activity (in words),human mGlu4,devoid of mGlu4 PAM activity
COc1ccc2c(c1)C(=O)N(c1ccc(NC(=O)c3ncccc3N)cc1Cl)C2 [Compound 17h],mGlu4 PAM activity (in words),human mGlu4,good PAM activity
"Nc1cccnc1C(=O)Nc1ccc(N2C(=O)c3ccccc3C2=O)c(Cl)c1 [Compound 17a, N-(3-chloro-4-(1,3-dioxoisoindolin-2-yl)phenyl)-3-aminopicolinamide]",mGlu4 PAM activity (in words),human mGlu4,good PAM activity
same,"total brain level, fold above the rat mGlu4 PAM EC50",[1],greater than 2 fold
same,reversal of haloperidol-induced catalepsy at 1 mg/kg p.o.,"[2]; 1 mg/kg p.o., haloperidol 1.5 mg/kg, side-by-side with 6",as efficacious as 6
same,reversal of haloperidol-induced catalepsy (in words),[2]; haloperidol 1.5 mg/kg,robust efficacy
same,selectivity versus the other mGlu receptors,other mGlu receptors,excellent selectivity
